Here are results for 2 compounds from patent publication US12378296B2, “Glucagon analogues as long-acting GLP-1/glucagon receptor agonists in the treatment of fatty liver disease and steatohepatitis” (Boehringer Ingelheim International GmbH, priority 2020, dated 2025).

The nature of this data set: Pharmacokinetic parameters after intravenous administration to rats. The data set is classed as in vivo. Conditions: male, Han/Wistar, plasma, rat, i.v. 20 nmol/kg; for MRT: read-out: Mean Residence Time; for half-life: read-out: Terminal half-life (converted). The protocol: Pharmacokinetic parameters of the test compounds were determined after intravenous administration to Han/Wistar rats. The acylated GLP-1 analogue semaglutide was also tested for comparison purposes.
Male Wistar rats were obtained from Charles River (Germany) weighing approximately 180 to 210 g at time of arrival at the test facility. Rats were caged in European standard rat cages type IV with light cycle of 12-hour dark and 12-hour light. During the study rats were housed in standard rat cages type III. Both diet Altromin 1324 (Altromin, Germany) and water was administered ad libitum during the whole experimental period. The animals were housed in the test facility for at least 4 days in order to assure proper acclimatization.
The compounds were first dissolved in 0.1% aqueous ammonia to a nominal concentration of 2 mg/ml, and then diluted to the desired dosing strength (10 μM) in sterile PBS containing 25 mM phosphate buffer, pH 7.4. Intravenous injections corresponding to 20 nmol/kg were given via a lateral tail vein.
Blood samples (200 μl) were collected from the periorbital plexus at time points 0.08, 0.25, 0.5, 1, 2, 4, 8, 24, 32 and 48 h post dosing into K3EDTA tubes and centrifuged for 5 minutes at 4° C. within 20 minutes of sampling. Plasma samples (>100 μl) were transferred to 96-well PCR plates, immediately frozen and kept at −20° C. until analysed for plasma concentration for the respective GLP-1-glucagon compound using LC-MS/MS. Individual plasma concentration-time profiles were analysed by a non-compartmental approach using ToxKin™ version 3.2 (Unilog IT Services), and the resulting pharmacokinetic parameters were determined.

A word on the clearance: it is the volume of plasma or blood freed of the substance per unit of time. High values mean efficient removal, low ones inefficient removal. One may read the half-life as the time needed for the level to fall by half in the phase considered. `CC[C@H](C)[C@H](NC(=O)[C@H](Cc1ccccc1)NC(=O)[C@H](CC(=O)O)NC(=O)[C@H](CCCCN)NC(=O)[C@H](C)NC(=O)[C@H](C)NC(=O)[C@H](CCCNC(=N)N)NC(=O)[C@H](CCC(=O)O)NC(=O)[C@H](CC(=O)O)NC(=O)[C@H](CC(C)C)NC(=O)[C@H](Cc1ccc(O)cc1)NC(=O)[C@H](CCCCN)NC(=O)[C@H](CO)NC(=O)[C@H](Cc1ccc(O)cc1)NC(=O)[C@H](CC(=O)O)NC(=O)[C@H](CO)NC(=O)[C@@H](NC(=O)[C@H](Cc1ccccc1)NC(=O)[C@@H](NC(=O)CNC(=O)[C@H](CCC(N)=O)NC(=O)C1(NC(=O)[C@@H](N)Cc2c[nH]cn2)CCC1)[C@@H](C)O)[C@@H](C)O)C(=O)N[C@@H](CCC(=O)O)C(=O)N[C@@H](Cc1c[nH]c2ccccc12)C(=O)N[C@@H](CC(C)C)C(=O)N[C@@H](CCC(=O)O)C(=O)N[C@@H](CCCCNC(=O)CNC(=O)CNC(=O)[C@H](CO)NC(=O)CNC(=O)[C@H](CO)NC(=O)CNC(=O)CC[C@H](NC(=O)CCCCCCCCCCCCCCCCC(=O)O)C(=O)O)C(=O)N[C@@H](C)C(N)=O` [Compound 6]: the clearance is 5.98 mL/h/kg, the MRT was 23.7 h and the half-life was 18.1 h.
In the same order, the values of `CC[C@H](C)[C@H](NC(=O)[C@H](Cc1ccccc1)NC(=O)[C@H](CC(=O)O)NC(=O)[C@H](CCCCN)NC(=O)[C@H](C)NC(=O)[C@H](C)NC(=O)[C@H](CCCNC(=N)N)NC(=O)[C@H](CCC(=O)O)NC(=O)[C@H](CC(=O)O)NC(=O)[C@H](CC(C)C)NC(=O)[C@H](Cc1ccc(O)cc1)NC(=O)[C@H](CCCCN)NC(=O)[C@H](CO)NC(=O)[C@H](Cc1ccc(O)cc1)NC(=O)[C@H](CC(=O)O)NC(=O)[C@H](CO)NC(=O)[C@@H](NC(=O)[C@H](Cc1ccccc1)NC(=O)[C@@H](NC(=O)CNC(=O)[C@H](CCC(N)=O)NC(=O)C1(NC(=O)[C@@H](N)Cc2c[nH]cn2)CCC1)[C@@H](C)O)[C@@H](C)O)C(=O)N[C@@H](CCCCNC(=O)CNC(=O)CNC(=O)[C@H](CO)NC(=O)CNC(=O)[C@H](CO)NC(=O)CNC(=O)CC[C@H](NC(=O)CCCCCCCCCCCCCCCCC(=O)O)C(=O)O)C(=O)N[C@@H](Cc1c[nH]c2ccccc12)C(=O)N[C@@H](CC(C)C)C(=O)N[C@@H](CCC(=O)O)C(=O)N[C@@H](CO)C(=O)N[C@@H](C)C(N)=O` [Compound 5] are 3.57 mL/h/kg, 28.5 h and 22.8 h.
